Source: US4649191A, “Conformationally constrained alpha-melanotropin analogs with specific central nervous system activity” (Gibson-Stephens Neuropharmaceuticals, Inc., priority 1984, dated 1987)
Positions of bridges follow the written chain, without caps; N, C: chain ends. Non-standard residues stand in square brackets, D forms with d. Residues, ends and D or L forms follow the SMILES beside them.

Key:
Sprague-Dawley rats [1] = assay: Morphine antagonism, tail flick test; type: in vivo, rat; conditions: Reversal of morphine analgesia, 100 μg peptide given I.P. 30 min before 5 mg/kg morphine; 55° C. water bath, 15 s cut-off; water vehicle control 48.9
Description: (§1) Central nervous system activity is determined in an assay which measures the ability of peptides to reverse or inhibit the in vivo analgesia induced in rats by morphine compared to the ability of the peptide to cause skin darkening in frogs in vivo. For a discussion of these assays see generally, Beckwith, B. E. and Sandman, C. A., Peptides, 3, 411-420 (1982) and Zimmerman, E. and Krivoy, W. A., Prog. Brain Res.; 39, 383-394 (1973), which are specifically incorporated by reference herein.
(§2) In Vivo Bioassays. Morphine antagonism was tested in Sprague-Dawley rats (250-300 g) by administering the compounds of the present invention and measuring the latency to rear paw lick and jumping.
(§3) Each rat received either a water vehicle or an α-MSH analog intraperitoneally. Thirty minutes later 5 mg/kg of morphine was administered to all animals and 30 minutes after the administration of the morphine, the percent analgesia was measured. Each animal was placed on a 55° C. hot plate. A sixty second cut-off was used and animals not responding within this time was considered analgesic. The results of these tests are summarized in Table I. Percent analgesia was calculated as follows: [formula] Antagonism to morphine analgesia was also measured using the tail flick test. The tails of the treated animals were placed in a 55° C. water bath and the latency of the animals to withdraw was measured in seconds. A fifteen second cut-off time was used.
Percent analgesia in the tail flick test was calculated as follows: [formula]

Sprague-Dawley rats [2] = assay: Morphine antagonism, hot plate test; type: in vivo, rat; conditions: Reversal of morphine analgesia, 100 μg peptide given I.P. 30 min before 5 mg/kg morphine; 55° C. hot plate, 60 s cut-off; water vehicle control 56.1
Description: as §1, §2, §3

frog Rana pipiens = assay: Frog skin bioassay (skin darkening, peripheral activity); type: in vivo; conditions: injected into dorsal lymph sac of Rana pipiens, 30 minute observation
Description: as §1
The peripheral activity of the compounds was tested using the frog skin bioassay system. See O'Donohue, T. L. and Dorsa, D. M., Peptides, 3, 353-395 (1982) and Hadley, M.E. et. al., Science, 213, 1025-1027 (1981) which are herein specifically incorporated by reference. Peptides were injected into the dorsal lymph sac of the frog Rana pipiens in amounts up to 20 mg. […] The lowest dose of peptide that produced skin darkening within the 30 minute observation period was determined. For example, in Table I, only 0.1 ng/g of α-MSH was administered before skin darkening was observed. In contract, 30 μg/g of [drawing 23] was administered and no skin darkening was observed.

Compound: NCCCC[C@H]1NC(=O)[C@H](Cc2ccccc2)NC(=O)[C@H](Cc2c[nH]cn2)NC(=O)[C@H](CCC(=O)O)NC(=O)[C@@H](N)CSSC[C@H](C(=O)O)NC(=O)[C@H](Cc2ccccc2)NC1=O (H-CEHF[dK]F[dC]-OH; disulfide 1-7)
- Percent Analgesia Tail Flick (Sprague-Dawley rats [1]): 10.5%
- Percent Analgesia Hot Plate (Sprague-Dawley rats [2]): 15.0%
- Minimum dose Producing Skin Darkening (frog Rana pipiens): 1 µg/g

Compound: N=C(N)NCCC[C@H]1NC(=O)[C@H](Cc2ccccc2)NC(=O)[C@H](Cc2c[nH]cn2)NC(=O)[C@H](CCC(=O)O)NC(=O)[C@@H](N)CSSC[C@H](C(=O)O)NC(=O)[C@H](Cc2ccccc2)NC1=O (H-CEHF[dR]F[dC]-OH; disulfide 1-7)
- Percent Analgesia Tail Flick (Sprague-Dawley rats [1]): 34.3%
- Percent Analgesia Hot Plate (Sprague-Dawley rats [2]): 42.6%
- Minimum dose Producing Skin Darkening (frog Rana pipiens): > 1 µg/g

Compound: β-MSH [reference compound]
- Percent Analgesia Tail Flick (Sprague-Dawley rats [1]): 11.9%
- Percent Analgesia Hot Plate (Sprague-Dawley rats [2]): 26.9%

Compound: NCCCC[C@H]1NC(=O)[C@H](Cc2ccccc2)NC(=O)[C@H](Cc2c[nH]cn2)NC(=O)[C@H](CCC(=O)O)NC(=O)[C@@H](N)CSSC[C@@H](C(=O)O)NC(=O)[C@H](Cc2ccccc2)NC1=O (H-CEHF[dK]FC-OH; disulfide 1-7)
- Percent Analgesia Tail Flick (Sprague-Dawley rats [1]): 14.9%
- Percent Analgesia Hot Plate (Sprague-Dawley rats [2]): 15.5%
- Minimum dose Producing Skin Darkening (frog Rana pipiens): > 1 µg/g

Compound: NCCCC[C@H]1NC(=O)[C@H](Cc2ccccc2)NC(=O)[C@H](Cc2c[nH]cn2)NC(=O)[C@H](CCC(=O)O)NC(=O)[C@@H](N)CSSC[C@@H](C(=O)O)NC(=O)[C@H](Cc2c[nH]c3ccccc23)NC1=O (H-CEHF[dK]WC-OH; disulfide 1-7)
- Percent Analgesia Tail Flick (Sprague-Dawley rats [1]): 1.5%
- Minimum dose Producing Skin Darkening (frog Rana pipiens): > 30 µg/g

Compound: N=C(N)NCCC[C@H]1NC(=O)[C@H](Cc2ccccc2)NC(=O)[C@H](Cc2c[nH]cn2)NC(=O)[C@H](CCC(=O)O)NC(=O)[C@@H](N)CSSC[C@@H](C(=O)O)NC(=O)[C@H](Cc2c[nH]c3ccccc23)NC1=O
- Percent Analgesia Tail Flick (Sprague-Dawley rats [1]): 6.7%
- Minimum dose Producing Skin Darkening (frog Rana pipiens): > 20 µg/g
